Results: patent publication US20250018048A1, “FLUCONAZOLE-COX INHIBITOR HYBRIDS: A DUAL-ACTING CLASS OF ANTIFUNGAL AZOLES” (Ramot at Tel-Aviv University Ltd., priority 2022, published 2025)
Entries after “also recorded” stand apart in the source; their conditions may differ.

Columns and labels:
[1] = test system: C. tropicalis 660; test: Disk diffusion assay for antifungal tolerance; assay type: cell-based; conditions: casitone agar, disk with 25 μg, 30° C.
Protocol: To investigate how tolerance is affected by the azole-COX inhibitor hybrids, a comparison of hybrids 1 and 5 to FLC and VOR in a disk diffusion assay was performed. Tolerance was evaluated by comparing the zone of inhibition after 24 h to that after 48 h. The assay was carried out on three representative strains: C. albicans, C. parapsilosis, and C. tropicalis (FIG. 7).
As shown, compared to FLC and VOR, azole-COX inhibitor hybrids 1 and 5 display reduced antifungal tolerance. Disk diffusion assays were carried out on casitone agar plates containing disks loaded with 25 μg of the tested hybrids. Plates were imaged after 24 h to evaluate antifungal activity (left half of the plate image) and after 48 h to evaluate tolerance (right half of the plate image).
Disk diffusion assay: Antifungal activities of select hybrids against C. albicans SN152, C. parapsilosis ATCC 22019, and C. tropicalis 660 were confirmed by the disk diffusion assay. Strains were streaked from frozen culture onto YPAD agar and incubated for 24 h at 30° C. Two or three colonies were placed into 1 mL of PBS solution, and OD600 was determined with a TECAN Infinite. OD600 was adjusted to 0.02 for C. albicans SN152 and to 0.025 for C. parapsilosis ATCC 22019 and C. tropicalis 660 by dilution with PBS. Aliquots of 200 μL of the diluted cultures of each strain were plated onto 15-mL casitone agar plates and spread using sterile beads (3 mm, Fisher Scientific). After the plates dried, a single disk (6-mm diameter, Becton Dickinson) with 25 μg of the hybrid being tested was placed in the center of each plate. Plates were then incubated at 30° C. and photographed under the same imaging conditions after 24 h and 48 h. FLC and VOR were used as control drugs.

[2] = test system: panel of 16 representative strains of different species of the genus Candida; test: Antifungal activity (MIC80) against a panel of Candida strains, comparison; assay type: cell-based; conditions: azole-susceptible strains
Protocol: The antifungal activities of the 24 azole-COX inhibitor hybrids were evaluated against a panel of 16 representative strains of different species of the genus Candida. Candida species cause both superficial and systemic infections. The panel included strains of C. albicans, C. glabrata, C. parapsilosis, C. tropicalis, C. guilliermondii, C. dubliniensis, and C. auris (Table S2). To evaluate antifungal activity, the minimal inhibitory concentration 80% (MIC80) values were determined, which were defined as the lowest drug concentrations with turbidity (measured at OD600) less than or equal to that of specific 1:5 dilutions of the growth control. As controls, FLC and VOR, were tested.
MIC80 values were determined using the broth microdilution method over a concentration range of 0.003-64 μg/mL. Orange circles represent C. albicans strains, yellow circles represent C. glabrata strains, and green circles represent C. parapsilosis, C. tropicalis, C. dubliniensis and C. auris. Cells were grown in YPAD medium at 30° C. (For C. auris strains 37° C.) 24 h. Each concentration was tested in triplicate, and results were confirmed in at least two independent experiments.
C. albicans, C. glabrata, C. parapsilosis, C. guilliermondii, C. tropicalis, and C. dubliniensis MICs were determined using CLSI M27-A3 guidelines with minor modifications. Starter cultures were streaked from glycerol stock onto YPAD agar plates and grown for 24 h at 30° C. Colonies were suspended in 1 mL PBS and diluted to 1×10^−3 OD600 and then diluted 1:100 into fresh medium. Hybrids dissolved in DMSO were added to YPAD broth (32 μL stock solution in 1218 μL of YPAD broth), and serial double dilutions of hybrids in YPAD were prepared in flat-bottomed 96-well microplates (Corning) to enable testing of concentrations ranging from 64 μg/mL to 0.003 μg/mL. Control wells with yeast cells but no drug and blank wells containing only YPAD were prepared. An equal volume (100 μL) of yeast suspensions in YPAD broth was added to each well with the exceptions of the blank wells. MIC values (Tables S4-S6) were determined after 24 h at 30° C. by measuring the OD600 using a plate reader (Infinite M200 PRO, Tecan). MIC values were defined as the point at which the OD600 was reduced by >80% compared to the no-drug wells. Each concentration was tested in triplicate, and results were confirmed by two independent sets of experiments. FLC and VOR were used as control drugs.

SMILES | Tolerance: zone of inhibition after 48 h compared with 24 h [1] | Antifungal potency (MIC80) in comparison with FLC, VOR or the corresponding stereoisomer [2]
OC(Cn1cncn1)(Cn1cncn1)c1ccc(F)cc1F [FLC, fluconazole] | the drug tolerant subpopulation was smaller | –
C[C@H](C(=O)NC[C@](O)(Cn1cncn1)c1ccc(F)cc1F)c1ccc(-c2ccccc2)c(F)c1 [Hybrid 5] | reduced tolerance | lowest MIC80 values against all of the azole-susceptible strains; also recorded: more potent than the corresponding R-configured ibuprofen hybrid 6
C[C@@H](c1ncncc1F)[C@](O)(Cn1cncn1)c1ccc(F)cc1F [VOR, voriconazole, reference compound] | the drug tolerant subpopulation was smaller | –
CC(C)Cc1ccc([C@H](C)C(=O)NC[C@](O)(Cn2cncn2)c2ccc(F)cc2F)cc1 [Hybrid 1] | reduced tolerance | lowest MIC80 values against all of the azole-susceptible strains; also recorded: up to two orders of magnitude more potent than FLC and was as potent as VOR
